Assays:
Aurora kinase A (AURKA) = biological target: T1, Aurora kinase A (AURKA) (Homo sapiens, UniProt O14965); assay: Luciferase assay for AURKA in HeLa LgBit (AURKA-HiBit KI) cell line; assay type: cell-based; settings: HeLa LgBit (AURKA-HiBit KI) cells, measured after 12 hours
T1 construct: endogenous in cells; host or cells: HeLa LgBit (AURKA-HiBit KI), CRISPR/Cas9 knock-in at the endogenous AURKA locus
T1 sequence (O14965 1-403): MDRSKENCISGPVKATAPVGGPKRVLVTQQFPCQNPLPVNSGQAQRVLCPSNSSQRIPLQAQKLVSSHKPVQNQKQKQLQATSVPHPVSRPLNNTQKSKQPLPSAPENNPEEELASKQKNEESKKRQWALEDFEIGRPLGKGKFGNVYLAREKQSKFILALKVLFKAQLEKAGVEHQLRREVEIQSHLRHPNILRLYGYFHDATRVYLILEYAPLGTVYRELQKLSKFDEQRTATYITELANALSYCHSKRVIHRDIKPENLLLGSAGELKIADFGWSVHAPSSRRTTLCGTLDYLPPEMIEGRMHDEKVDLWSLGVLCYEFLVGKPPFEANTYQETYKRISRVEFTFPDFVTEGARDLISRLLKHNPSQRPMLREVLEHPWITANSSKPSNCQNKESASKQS
Method in brief: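 Test compounds (10 nM or 100 nM) added to AURKA-HiBit knock-in HeLa LgBit cells that had been pre-loaded with Endurazine for 2 h following an 18 h culture at 3×10^4 cells. Endogenous AURKA-HiBit level followed by luminescence (470-480 nm), measured after 12 h.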

NCI-H446 cell line = assay: Cell viability assay for NCI-H446 cell line; assay type: cell-based; settings: Homo sapiens, NCI-H446, 120 h; H446 cells, 5 days culture, EZ-Cytox; read-out: IC50 value (Level)
From the text: The NCI-H446 (hereafter H446) cell lines were provided from American Type Culture Collection (ATCC). For cell culture, RPMI medium 1640 (Gibco, Cat. No. 22400-089; Lot. No. 2522717), FBS (Gibco, Cat. No. 16000-044; Lot. No. 2716756P), Penicillin/Streptomycin (PS) (Gibco, Cat. No. 15140-122; Lot. No. 2585636), 75T cell culture flask (SPL, Cat. No. 70075), 96 well cell culture plate (SPL, Cat. No. 30096), PBS pH 7.4 (Gibco, Cat. No. 10010-023; Lot. No. 2561466), TrypLE™ Express (Gibco, Cat. No. 12605-010; Lot. No. 2492811), counting chamber (hematocytometer) (Hirschmann, Cat. No. 8100204) and 0.4% Trypan Blue solution (DYNEBIO, Cat. No. CBT3710; Lot. No. 20231017) were used. Cells were cultured in RPMI 1640 medium supplemented with 10% FBS and 1% PS and incubated at 37° C., 5% CO2 condition in CO2 incubator (ThermoScientific, Cat. No. 4111).
For experiment, the present compounds were fully dissolved in DMSO (Sigma-Aldrich Cat. No. D2438, Lot. No. RNBL7287.
In each well of 96-well cell culture plate, […] cells of H446 cell lines were seeded in 150 μl of total medium volume. After 24 hours of cell seeding, the present compounds were treated.
The present compounds were each diluted 3-folds from the highest concentration of 1000 nM to the lowest concentration of 0.15 nM. The compound was added to each well to make the total volume of […] and the cells were cultured for 5 days in CO2 incubator (Thermo Fisher Science, Cat. No. 4111).
Thereafter, 20 μl of EZ-Cytox (DOGEN, Cat. NO. EZ-3000, Lot. No. DLS2308) was added to each well and the cells were cultured for 4 hours at the same condition in CO2 incubator. After culture, the absorbance of the sample was measured by setting the wavelength of a plate reader (BMG Labtech, CLARIOstar Plus) to […]. The samples were shaked for 2 minutes in the plate reader before measurement.

luminescence value (Level) (Aurora kinase A (AURKA); 10 nM compound) | luminescence value (Level) (Aurora kinase A (AURKA); 100 nM compound) | Structure (SMILES) | IC50 (NCI-H446 cell line) [µM]
A (A is <0.3) | A (A is <0.2) | O=C1CCC(Nc2ccc(N3CCN(CCC4CCN(NC(=O)c5ccc(Nc6ncc(F)c(Nc7ccc(C(=O)Nc8ccccc8Cl)cc7)n6)cc5)CC4)CC3)c(F)c2)C(=O)N1 (stereo not drawn) [Compound 55, N-(2-chlorophenyl)-4-((2-((4-((4-(2-(4-(4-((2,6-dioxopiperidin-3-yl)amino)-2-fluorophenyl)piperazin-1-yl)ethyl)piperidin-1-yl)carbamoyl)phenyl)amino)-5-fluoropyrimidin-4-yl)amino)benzamide] | < 0.05
A (A is <0.3) | A (A is <0.2) | O=C1CCC(c2ccc(N3CCN(CCC4CCN(NC(=O)c5ccc(Nc6ncc(F)c(Nc7ccc(C(=O)Nc8ccccc8Cl)cc7)n6)cc5)CC4)CC3)nc2)C(=O)N1 (stereo not drawn) [Compound 56, N-(2-chlorophenyl)-4-[[2-[4-[[4-[2-[4-[5-(2,6-dioxo-3-piperidyl)-2-pyridyl]piperazin-1-yl]ethyl]-1-piperidyl]carbamoyl]anilino]-5-fluoro-pyrimidin-4-yl]amino]benzamide] | < 0.05
A (A is <0.3) | A (A is <0.2) | O=C1CCC(c2ccc(N3CCN(CCC4CCN(NC(=O)c5ccc(Nc6ncc(F)c(Nc7ccccc7Cl)n6)cc5)CC4)CC3)cc2)C(=O)N1 (stereo not drawn) [Compound 57, 4-((4-((2-chlorophenyl)amino)-5-fluoropyrimidin-2-yl)amino)-N-(4-(2-(4-(4-(2,6-dioxopiperidin-3-yl)phenyl)piperazin-1-yl)ethyl)piperidin-1-yl)benzamide] | 0.1 to 0.15
A (A is <0.3) | A (A is <0.2) | O=C1CCC(c2ccc(N3CCN(CCC4CCN(NC(=O)c5ccc(Nc6ncc(F)c(Nc7ccccc7)n6)cc5)CC4)CC3)cc2)C(=O)N1 (stereo not drawn) [Compound 58, N-(4-(2-(4-(4-(2,6-dioxopiperidin-3-yl)phenyl)piperazin-1-yl)ethyl)piperidin-1-yl)-4-((5-fluoro-4-(phenylamino)pyrimidin-2-yl)amino)benzamide] | < 0.05
A (A is <0.3) | A (A is <0.2) | C[C@H](CN1CCN(c2ccc(C3CCC(=O)NC3=O)cc2)CC1)C1CCN(NC(=O)c2ccc(Nc3ncc(F)c(Nc4ccc(C(=O)Nc5ccccc5Cl)cc4)n3)cc2)CC1 (stereo partly drawn) [Compound 63, N-(2-chlorophenyl)-4-((2-((4-((4-((2S)-1-(4-(4-(2,6-dioxopiperidin-3-yl)phenyl)piperazin-1-yl)propan-2-yl)piperidin-1-yl)carbamoyl)phenyl)amino)-5-fluoropyrimidin-4-yl)amino)benzamide] | < 0.05
B (B is 0.3 to 0.5) | A (A is <0.2) | O=C1CCC(c2ccc(N3CCN(CCN4CC(NC(=O)c5ccc(Nc6ncc(F)c(Nc7ccc(C(=O)Nc8ccccc8Cl)cc7)n6)cc5)C4)CC3)cc2)C(=O)N1 (stereo not drawn) [Compound 65, N-(2-chlorophenyl)-4-((2-((4-((1-(2-(4-(4-(2,6-dioxopiperidin-3-yl)phenyl)piperazin-1-yl)ethyl)azetidin-3-yl)carbamoyl)phenyl)amino)-5-fluoropyrimidin-4-yl)amino) benzamide] | 0.05 to 0.1

More lines, now with the values behind:

Structure (SMILES) | luminescence value (Level) (Aurora kinase A (AURKA); 10 nM compound) | luminescence value (Level) (Aurora kinase A (AURKA); 100 nM compound) | IC50 (NCI-H446 cell line) [µM]
CN(c1cccc(N2CCC(CN3CCN(C(=O)Cc4ccc(Nc5ncc(F)c(Nc6ccc(C(=O)Nc7ccccc7Cl)cc6)n5)cc4)CC3)CC2)c1)C1CCC(=O)NC1=O (stereo not drawn) [Compound 45, N-(2-chlorophenyl)-4-((2-((4-(2-(4-((1-(3-((2,6-dioxopiperidin-3-yl)(methyl)amino)phenyl)piperidin-4-yl)methyl)piperazin-1-yl)-2-oxoethyl)phenyl)amino)-5-fluoropyrimidin-4-yl)amino)benzamide] | C (C is 0.5 to 0.7) | B (B is 0.2 to 0.4) | 0.05 to 0.1
O=C1CCC(c2ccc(N3CCN(CCC4CCN(NC(=O)c5ccc(Nc6ncc(F)c(Nc7ccc(C(=O)Nc8ccccc8Cl)cc7)n6)cc5)CC4)CC3)c(F)c2)C(=O)N1 (stereo not drawn) [Compound 48, N-(2-chlorophenyl)-4-((2-((4-((4-(2-(4-(4-(2,6-dioxopiperidin-3-yl)-2-fluorophenyl)piperazin-1-yl)ethyl)piperidin-1-yl)carbamoyl)phenyl)amino)-5-fluoropyrimidin-4-yl)amino)benzamide] | A (A is <0.3) | A (A is <0.2) | < 0.05
CN(CC1CCN(c2ccc(C3CCC(=O)NC3=O)cc2)CC1)[C@H]1CC[C@H](NC(=O)c2ccc(Nc3ncc(F)c(Nc4ccc(C(=O)Nc5ccccc5Cl)cc4)n3)cc2)CC1 (stereo partly drawn) [Compound 49, N-(2-chlorophenyl)-4-((2-((4-(((1r,4r)-4-(((1-(4-(2,6-dioxopiperidin-3-yl)phenyl)piperidin-4-yl)methyl)(methyl)amino)cyclohexyl)carbamoyl)phenyl)amino)-5-fluoropyrimidin-4-yl)amino)benzamide] | A (A is <0.3) | A (A is <0.2) | < 0.05
O=C1CCC(c2ccc(N3CCC(CN4CCC(NC(=O)c5ccc(Nc6ncc(F)c(Nc7ccc(C(=O)Nc8ccccc8Cl)cc7)n6)cc5)CC4)CC3)cc2)C(=O)N1 (stereo not drawn) [Compound 50, N-(2-chlorophenyl)-4-[[2-[4-[[1-[[1-[4-(2,6-dioxo-3-piperidyl)phenyl]-4-piperidyl]methyl]-4-piperidyl]carbamoyl]anilino]-5-fluoro-pyrimidin-4-yl]amino]benzamide] | B (B is 0.3 to 0.5) | A (A is <0.2) | 0.05 to 0.1
O=C1CCC(c2ccc(N3CCN(C(=O)CN4CCC(NC(=O)c5ccc(Nc6ncc(F)c(Nc7ccc(C(=O)Nc8ccccc8Cl)cc7)n6)cc5)CC4)CC3)cc2)C(=O)N1 (stereo not drawn) [Compound 51, N-(2-chlorophenyl)-4-((2-((4-((1-(2-(4-(4-(2,6-dioxopiperidin-3-yl)phenyl)piperazin-1-yl)-2-oxoethyl)piperidin-4-yl)carbamoyl)phenyl)amino)-5-fluoropyrimidin-4-yl)amino)benzamide] | A (A is <0.3) | A (A is <0.2) | < 0.05
O=C1CCC(c2ccc(N3CCN(CCCC4CCN(NC(=O)c5ccc(Nc6ncc(F)c(Nc7ccc(C(=O)Nc8ccccc8Cl)cc7)n6)cc5)CC4)CC3)cc2)C(=O)N1 (stereo not drawn) [Compound 52, N-(2-chlorophenyl)-4-((2-((4-((4-(3-(4-(4-(2,6-dioxopiperidin-3-yl)phenyl)piperazin-1-yl)propyl)piperidin-1-yl)carbamoyl)phenyl)amino)-5-fluoropyrimidin-4-yl)amino)benzamide] | A (A is <0.3) | A (A is <0.2) | < 0.05
O=C1CCC(c2ccc(N3CCN(CCC4CCN(C(=O)Nc5ccc(Nc6ncc(F)c(Nc7ccc(C(=O)Nc8ccccc8Cl)cc7)n6)cc5)CC4)CC3)cc2)C(=O)N1 (stereo not drawn) [Compound 53, N-(4-((4-((4-((2-chlorophenyl)carbamoyl)phenyl)amino)-5-fluoropyrimidin-2-yl)amino)phenyl)-4-(2-(4-(4-(2,6-dioxopiperidin-3-yl)phenyl)piperazin-1-yl)ethyl)piperidine-1-carboxamide] | B (B is 0.3 to 0.5) | A (A is <0.2) | < 0.05
